The values that follow come from patent US8497260B2, “2-arylbenzothiophene derivatives or pharmaceutically acceptable salts thereof, preparation method thereof, and pharmaceutical composition for the diagnosis or treatment of degenerative brain disease containing the same as active ingredient” (Industry-University Cooperation Foundation Sogang University, priority 2009, dated 2013).

System in one data set: not given
Experiment: not given
Conditions: not given
Regarding `O=[N+]([O-])c1ccc(-c2cc3ccc(O)cc3s2)cc1` [Example 4, 2-(4-nitrophenyl)-6-hydroxybenzothiophene], the melting point (usually the temperature, or range, at which the solid turns liquid) lay in the range of 265 to 265.2 °C.
The same measure, in the same setting: for `Nc1ccc(-c2cc3ccc(OCCCF)cc3s2)cc1` [Example 10, 2-(4-aminophenyl)-6-(3-fluoropropoxy)benzothiophene] the value was 119.6 to 123.2 °C; for `CNc1ccc(-c2cc3ccc(OCCF)cc3s2)cc1` [Example 12, 2-[4-(N-monomethylamino)phenyl]-6-(2-fluoroethoxy)benzothiophene], 156.9 to 159.7 °C; for `CNc1ccc(-c2cc3ccc(OCCCF)cc3s2)cc1` [Example 13, 2-[4-(N-monomethylamino)phenyl]-6-(3-fluoropropoxy)benzothiophene], 121.4 to 123.1 °C.
With `CN(C)c1ccc(-c2cc3ccc(OCCF)cc3s2)cc1` [Example 16, 2-[4-(N,N-dimethylamino)phenyl]-6-(2-fluoroethoxy)benzothiophene], the melting point was in the range of 183.9 to 195.9 °C.

For a further data set, the target named is T1, β-amyloid (Aβ1-42) fibrils (Homo sapiens, UniProt P05067).
T1 construct: β-Amyloid peptide (Aβ1-42, 1 mg, Bachem); purchased Bachem
T1 sequence (P05067 672-713 limits assumed): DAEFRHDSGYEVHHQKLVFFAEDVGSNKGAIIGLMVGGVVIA
The experiment in a line: Inhibitory binding assay against [125I]TZDM on β-amyloid (Aβ1-42) fibrils. The settings on record: Aβ1-42 fibrils 10 nM, [125I]TZDM 0.05 nM, 10% ethanol, room temperature 3 hours, nonspecific binding with 2 μM ThT; read-out: Ki, relative binding affinity to [125I]TZDM (112). The procedure: β-Amyloid peptide (Aβ1-42, 1 mg, Bachem) was completely dissolved in 1 mL of DMSO, 9 mL of phosphate buffered saline (PBS) (pH 7.4) was added thereto and well mixed. The resulting mixture was incubated at 37° C. for 60 minutes to form β-amyloid fibrils, 0.5 mL was taken and transferred to each e-tube and placed into a refrigerator maintained at −80° C.
To determine whether β-amyloid peptide was properly formed into β-amyloid fibrils, 150 μL of 5 μM Thioflavin T (ThT) was added to 50 μL of incubated β-amyloid fibrils, the fluorescence intensity of ThT binding specifically to β-amyloid fibrils at excitation/emission wavelengths (λex/λem), e.g., 450 nm/480 nm, was detected using a spectrometer.
0.850 mL of 10% Ethanol was placed into 12 mm×75 mm borosilicate test tubes, and 50 μL of β-amyloid (Aβ1-42) fibrils were added such that the final reaction concentration became 10 nM. […] Here, the nonspecific binding was performed using 2 μM Thioflavin T (ThT).
`COc1cccc2sc(-c3ccc([N+](=O)[O-])cc3)cc12` [Example 1, 2-(4-nitrophenyl)-4-methoxybenzothiophene]: the Ki (usually a dissociation constant, usually derived from enzyme kinetics or from competition with a known ligand) turned out to be 0.73 nM.
On the same count and under the same terms, for `COc1ccc2cc(-c3cccc([N+](=O)[O-])c3)sc2c1` [Example 2, 2-(3-nitrophenyl)-6-methoxybenzothiophene] the value was 0.65 nM; for `COc1ccc2cc(-c3ccc([N+](=O)[O-])cc3)sc2c1` [Example 3, 2-(4-nitrophenyl)-6-methoxybenzothiophene], 2.3 nM.
On the same count and under the same terms, next, `O=[N+]([O-])c1ccc(-c2cc3ccc(O)cc3s2)cc1` [Example 4, 2-(4-nitrophenyl)-6-hydroxybenzothiophene]: 1.07 nM.
The same measure, in the same setting: for `COc1ccc2cc(-c3ccc(N)cc3)sc2c1` [Example 8, 2-(4-aminophenyl)-6-methoxybenzothiophene] the value was 0.51 nM.
Take `Nc1ccc(-c2cc3ccc(OCCF)cc3s2)cc1` [Example 9, 2-(4-aminophenyl)-6-(2-fluoroethoxy)benzothiophene]: the inhibition constant (Ki) was 0.38 nM.
Consider `Nc1ccc(-c2cc3ccc(OCCCF)cc3s2)cc1` [Example 10, 2-(4-aminophenyl)-6-(3-fluoropropoxy)benzothiophene], for which the inhibitory constant (Ki) stood at 0.64 nM.
Still for that read-out and setting: for `CNc1ccc(-c2cc3ccc(OC)cc3s2)cc1` [Example 11, 2-[4-(N-monomethylamino)phenyl]-6-methoxybenzothiophene] the value was 0.43 nM.
The same measure, in the same setting: next, `CNc1ccc(-c2cc3ccc(OCCF)cc3s2)cc1` [Example 12, 2-[4-(N-monomethylamino)phenyl]-6-(2-fluoroethoxy)benzothiophene]: 0.064 nM; `CNc1ccc(-c2cc3ccc(OCCCF)cc3s2)cc1` [Example 13, 2-[4-(N-monomethylamino)phenyl]-6-(3-fluoropropoxy)benzothiophene]: 0.27 nM.
Still for that read-out and setting: next, `COc1cccc2sc(-c3ccc(N(C)C)cc3)cc12` [Example 14, 2-[4-(N,N-dimethylamino)phenyl]-4-methoxybenzothiophene]: 0.77 nM; `COc1ccc2cc(-c3ccc(N(C)C)cc3)sc2c1` [Example 15, 2-[4-(N,N-dimethylamino)phenyl]-6-methoxybenzothiophene]: 1.58 nM.
In the case of `CN(C)c1ccc(-c2cc3ccc(OCCF)cc3s2)cc1` [Example 16, 2-[4-(N,N-dimethylamino)phenyl]-6-(2-fluoroethoxy)benzothiophene], the Ki stood at 0.079 nM.
On to `COc1ccc2cc(-c3ccc(OCCF)nc3)sc2c1` [Example 18, 2-[2-(2-fluoroethoxy)pyridine-5-yl]-6-methoxybenzothiophene], for which the Ki stood at 0.09 nM.
Same read-out and setting: for `COc1ccc2cc(-c3ccc(OCCCF)nc3)sc2c1` [Example 19, 2-[2-(3-fluoropropoxy)pyridine-5-yl]-6-methoxybenzothiophene] the value was 0.39 nM; for `COc1ccc(-c2cc3ccc(OCCF)cc3s2)cn1` [Example 20, 2-(2-methoxypyridine-5-yl)-6-(2-fluoroethoxy)benzothiophene], 1.32 nM; for `Nc1ccc(-c2cc3ccc(OCCF)cc3s2)cn1` [Example 21, 2-(2-aminopyridine-5-yl)-6-(2-fluoroethoxy)benzothiophene], 1.11 nM.
The same measure, in the same setting: for `CNc1ccc(-c2cc3ccc(OCCF)cc3s2)cn1` [Example 22, 2-[2-(N-monomethylamino)pyridine-5-yl]-6-(2-fluoroethoxy)benzothiophene] the value was 0.46 nM.
Regarding `CN(C)c1ccc(-c2cc3ccc(OCCF)cc3s2)cn1` [Example 23, 2-[2-(N,N-dimethylamino)pyridine-5-yl]-6-(2-fluoroethoxy)benzothiophene], the Ki came out at 0.72 nM.
Same read-out and setting: next, `Nc1ccc(-c2cc3ccc(OCCCF)cc3s2)cn1` [Example 24, 2-(2-aminopyridine-5-yl)-6-(3-fluoropropoxy)benzothiophene]: 1.18 nM; `CNc1ccc(-c2cc3ccc(OCCCF)cc3s2)cn1` [Example 25, 2-[2-(N-monomethylamino)pyridine-5-yl]-6-(3-fluoropropoxy)benzothiophene]: 0.06 nM; `CN(C)c1ccc(-c2cc3ccc(OCCCF)cc3s2)cn1` [Example 26, 2-[2-(N,N-dimethylamino)pyridine-5-yl]-6-(3-fluoropropoxy)benzothiophene]: 0.09 nM.
Same read-out and setting: for `COc1ccc2cc(-c3ccnc(OCCF)c3)sc2c1` [Example 27, 2-[2-(2-fluoroethoxy)pyridine-4-yl]-6-methoxybenzothiophene] the value was 0.83 nM; for `COc1ccc2cc(-c3ccnc(OCCCF)c3)sc2c1` [Example 28, 2-[2-(3-fluoropropoxy)pyridine-4-yl]-6-methoxybenzothiophene], 0.1 nM; for `COc1cc(-c2cc3ccc(OCCCF)cc3s2)ccn1` [Example 30, 2-(2-methoxypyridine-4-yl)-6-(3-fluoropropoxy)benzothiophene], 0.79 nM.
Same read-out and setting: for `COc1ccc2cc(-c3ccnc(OCCF)n3)sc2c1` [Example 31, 2-[2-(2-fluoroethoxy)pyrimidine-4-yl]-6-methoxybenzothiophene] the value was 0.61 nM; for `COc1ccc2cc(-c3ccnc(OCCCF)n3)sc2c1` [Example 32, 2-[2-(3-fluoropropoxy)pyrimidine-4-yl]-6-methoxybenzothiophene], 0.46 nM; for `COc1ccc2cc(-c3ccnc(NCCF)n3)sc2c1` [Example 33, 2-[2-(N-(2-fluoroethyl)amino)pyrimidine-4-yl]-6-methoxybenzothiophene], 0.53 nM.
On to `COc1nccc(-c2cc3ccc(OCCF)cc3s2)n1` [Example 34, 2-(2-methoxypyrimidine-4-yl)-6-(2-fluoroethoxy)benzothiophene], for which the Ki worked out at 0.47 nM.
Still for that read-out and setting: next, `CNc1nccc(-c2cc3ccc(OCCF)cc3s2)n1` [Example 35, 2-[2-(N-monomethylamino)pyrimidine-4-yl]-6-(2-fluoroethoxy)benzothiophene]: 0.55 nM.
On the same count and under the same terms, next, `COc1nccc(-c2cc3ccc(OCCCF)cc3s2)n1` [Example 37, 2-(2-methoxypyrimidine-4-yl)-6-(3-fluoropropoxy)benzothiophene]: 0.44 nM; `CNc1ccnc(-c2cc3ccc(OCCF)cc3s2)n1` [Example 41, 2-[4-(N-monomethylamino)pyrimidine-2-yl]-6-(2-fluoroethoxy)benzothiophene]: 0.53 nM.
For the compound `CN(C)c1ccnc(-c2cc3ccc(OCCF)cc3s2)n1` [Example 42, 2-[4-(N,N-dimethylamino)pyrimidine-2-yl]-6-(2-fluoroethoxy)benzothiophene], the Ki amounted to 0.25 nM.
With `CNc1ccnc(-c2cc3ccc(OCCCF)cc3s2)n1` [Example 43, 2-[4-(N-monomethylamino)pyrimidine-2-yl]-6-(3-fluoropropoxy)benzothiophene], the Ki is 0.37 nM.
Same read-out and setting: for `COc1ccc2cc(-c3ccc(OCCF)nn3)sc2c1` [Example 44, 2-[3-(2-fluoroethoxy)pyridazine-6-yl]-6-methoxybenzothiophene] the value was 0.065 nM.
For `COc1ccc2cc(-c3ccc(OCCCF)nn3)sc2c1` [Example 45, 2-[3-(3-fluoropropoxy)pyridazine-6-yl]-6-methoxybenzothiophene], the inhibition constant (Ki) amounted to 1 nM.
Still for that read-out and setting: next, `Nc1ccc(-c2cc3ccc(OCCF)cc3s2)nn1` [Example 47, 2-(3-aminopyridazine-6-yl)-6-(2-fluoroethoxy)benzothiophene]: 0.44 nM; `CNc1ccc(-c2cc3ccc(OCCF)cc3s2)nn1` [Example 48, 2-[3-(N-monomethylamino)pyridazine-6-yl]-6-(2-fluoroethoxy)benzothiophene]: 0.3 nM.
Take `CN(C)c1ccc(-c2cc3ccc(OCCF)cc3s2)nn1` [Example 49, 2-[3-(N,N-dimethylamino)pyridazine-6-yl]-6-(2-fluoroethoxy)benzothiophene]: the Ki worked out at 0.43 nM.
The same measure, in the same setting: next, `COc1ccc(-c2cc3ccc(OCCCF)cc3s2)nn1` [Example 50, 2-(3-methoxypyridazine-6-yl)-6-(3-fluoropropoxy)benzothiophene]: 0.18 nM; `Nc1ccc(-c2cc3ccc(OCCCF)cc3s2)nn1` [Example 51, 2-(3-aminopyridazine-6-yl)-6-(3-fluoropropoxy)benzothiophene]: 0.38 nM; `CNc1ccc(-c2cc3ccc(OCCCF)cc3s2)nn1` [Example 52, 2-[3-(N-monomethylamino)pyridazine-6-yl]-6-(3-fluoropropoxy)benzothiophene]: 0.55 nM.
Consider `CN(C)c1ccc(-c2cc3ccc(OCCCF)cc3s2)nn1` [Example 53, 2-[3-(N,N-dimethylamino)pyridazine-6-yl]-6-(3-fluoropropoxy)benzothiophene], for which the inhibitory constant (Ki) amounted to 0.65 nM.
Still for that read-out and setting: next, `COc1ccc2cc(-c3cncc(OCCCF)n3)sc2c1` [Example 55, 2-[2-(3-fluoropropoxy)pyrazine-6-yl]-6-methoxybenzothiophene]: 0.45 nM.
